Reference: article PMC8279415, “Targeting Acute Myelogenous Leukemia Using Potent Human Dihydroorotate Dehydrogenase Inhibitors Based on the 2-Hydroxypyrazolo[1,5-a]pyridine Scaffold: SAR of the Biphenyl Moiety” (Journal of Medicinal Chemistry, 2021)
In brackets after ≈: the same amount, converted by molar mass. Entries after “also recorded” stand apart in the source; their conditions may differ. Like-named read-outs stand apart in the source and are kept apart here.

Key:
recombinant hDHODH = molecular target: T1, recombinant hDHODH (Homo sapiens, UniProt Q02127); assay: hDHODH inhibition assay (DCIP reduction); type: biochemical
T1 construct: made in house; host or cells: E. coli BL21DE3 PyrD
T1 sequence (Q02127 whole entry): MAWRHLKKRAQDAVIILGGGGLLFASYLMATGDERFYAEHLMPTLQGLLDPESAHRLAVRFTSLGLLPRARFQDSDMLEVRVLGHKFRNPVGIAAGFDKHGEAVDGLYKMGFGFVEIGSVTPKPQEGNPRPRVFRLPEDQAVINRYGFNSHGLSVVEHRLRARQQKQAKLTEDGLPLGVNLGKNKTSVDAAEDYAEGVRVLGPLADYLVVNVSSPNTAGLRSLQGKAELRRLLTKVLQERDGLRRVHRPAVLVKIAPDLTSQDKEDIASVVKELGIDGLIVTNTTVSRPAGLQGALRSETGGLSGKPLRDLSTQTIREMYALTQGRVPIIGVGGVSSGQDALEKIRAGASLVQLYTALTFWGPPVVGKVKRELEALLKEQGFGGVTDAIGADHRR
Procedure: BL21DE3 PyrD E. coli cells were transformed using the plasmid construct pFN2A–hDHODH (kindly given by Department of Drug Science and Technology, University of Turin, Turin, Italy). The vector produces hDHODH as an N-terminal GST-fusion protein. Cells were grown at 37 °C in LB medium supplemented with 0.1 mM flavin mononucleotide (Cayman Chemical). […] Triton X-100 was added to the lysate, to a final concentration of 1%, before centrifugation at 14 000g for 40 min at 4 °C. The clarified supernatant was incubated with DNase I for 30 min at room temperature, supplemented with 2 mM dithiothreitol (DTT), and filtered through a 0.45 μm syringe filter as previously described by Sainas et al.[18] The GST-fused enzyme was purified from the bacterial lysate using affinity chromatography on immobilized glutathione-Sepharose columns (GE- […]). The GST tag was not cleaved for further analysis. All the reagents used in the protein expression and purification were supplied by Merck/Sigma-Aldrich if not otherwise specified.
The enzymatic inhibition assay was optimized for being performed on a 96-well plate and to achieve higher throughput. For each well of the plate a total volume of 200 μL was used: 5 μL of purified GST-hDHODH; 60 μL of 2,6-dichloroindophenol (DCIP) 50 μM; 20 μL of coenzyme Q10 enzyme 100 μM; 20 μL of dihydroorotate (DHO) 500 μM; Tris-HCl, pH 8, up to a final volume of 200 μL. Inhibitory activity was assessed by monitoring the reduction of DCIP, which is associated with the oxidation of dihydroorotate as catalyzed by the DHODH enzyme. The enzyme was preincubated for 5 min at 37 °C in Tris-HCl, pH 8, with coenzyme Q10, with DCIP (50 μM), and with the compounds to be tested used at different concentrations (final DMSO concentration 0.1% v/v). The reaction was initiated by the addition of DHO (500 μM), and the absorbance kinetic reduction was monitored at λ = 650 nm using a multiplate reader (Tecan, M1000Pro). In order to assess the minimum and maximum absorbance values of the enzymatic reaction, a Min control value was obtained by measuring the absorbance without DHO. Similarly, a Max value was obtained by measuring the absorbance with DHO but no inhibitor. A blank reduction calculation was also performed by measuring the absorbance values using 180 μL of Tris-HCl and 20 μL of coenzyme Q10. The instrument was set to read the absorbance values every 10 s for a total read time of 10 min at 37 °C. […] Values are the mean ± SE of three independent experiments.

[1] = Solubility assay at pH 7.4 in PBS; type: physicochemical; conditions: for solubility at 24 h: phosphate buffered saline; for solubility at 24 h / solubility in PBS: pH 7.4, 25 °C, LOD 6 μM, 24 h
Procedure: These suspensions were filtered through a PTFE 0.45 μm filter (VWR), and the solutions were chromatographically analyzed using a PerkinElmer ultrahigh performance liquid chromatography (UHPLC) instrument, equipped with a reverse-phase (RP) C18 Phenomenex column (2.1 mm × 100 mm, 1.7 μm particle size). […] The flow rate was 0.5 mL/min. Standard injection volumes were either 2 or 4 μL for poorly soluble compounds. The detection system was a PerkinElmer diode array detector. The wavelengths that were monitored for each compound were defined according to the compound’s own absorption spectrum. Solubility, expressed as μM concentration of the saturated solution, was calculated via interpolation with external calibration curves that were obtained with solutions of each compound in acetonitrile.

THP1 cells [2] = assay: Fixed-concentration screening of differentiation (CD14) and apoptosis (annexin V) in THP1, with or without uridine; type: cell-based, human
Procedure: DMSO (dimethyl sulfoxide) acts as the negative control group as it was used to solubilize hDHODH inhibitors. ∗, ∗∗, ∗∗∗ represent the statistical significance for apoptosis (respectively p < 0.05, < 0.01, and <0.001). #, ##, and ### represent the statistical significance for differentiation (respectively p < 0.05, <0.01, and <0.001). The statistical significance is calculated by comparing the compounds to DMSO.
The statistical significance is calculated by comparing the compounds to DMSO.

[3] = LogD7.4, shake-flask n-octanol/PBS; conditions: for logD: n-octanol/PBS; for logD / logD at 20 min: pH 7.4; for LogD^7.4 ± SD: n-octanol/PBS pH 7.4, shake-flask; for Log D7.4 ± SD (supplement CSV): supplementary CSV
Procedure: The partition coefficients between n-octanol and PBS at pH 7.4 (LogD^7.4) were obtained using the shake-flask technique at room temperature. In the shake-flask experiments, 50 mM phosphate buffered saline, pH 7.4, was used as the aqueous phase. The organic (n-octanol) and aqueous phases were mutually saturated by shaking for 4 h. The compounds were solubilized in the buffered aqueous phase at the highest concentration compatible with solubility, and appropriate amounts of n-octanol were added. The two phases were shaken for about 20 min, by which time the partitioning equilibrium of solutes had been reached, and then centrifuged (10 000 rpm, 10 min). The concentration of the solutes was measured in the aqueous phase using a UV spectrophotometer (Varian Cary 50BIO); absorbance values (recorded for each compound at the wavelength of maximum absorption) were interpolated in calibration curves obtained using standard solutions of the compounds (r^2 > 0.99). Each log D value is an average of at least six measurements.

[4] = In vitro metabolic profile in rat-liver microsomes; type: in vitro ADME; conditions: for metabolites identified in sample C: active rat-liver microsomes and regenerating system, HPLC-HRMS
Procedure: SyGMa (systematic generation of potential metabolites) software, a tool that lists predicted metabolites with associated empirical probability scores, was used to identify putative metabolites, which were then investigated by analyzing samples with liquid chromatography coupled to high-resolution mass spectrometry (HPLC–HRMS). […] The full-scan MS data acquired for all of the samples were analyzed to find the m/z values of the predicted molecular structures. In order to exclude interfering signals, the results obtained were compared to blank samples and common background peaks were not considered.
Rat-liver microsomes (Sprague-Dawley, male, Sigma-Aldrich; 20 mg/mL protein concentration) were incubated with the candidate compound solution (5 μM final concentration, with 1% DMSO) and Tris buffer (0.1 M, pH = 7.4). The regenerating system, which slowly generated coenzyme units over the incubation time, leading to a better reproduction of in vivo behavior, was composed of MgCl2 (3.3 mM), NADP^+ (1.3 mM), Glu6P (3.5 mM), and Glu6P dehydrogenase (0.5 U/mL).
The incubation time started with the addition of the microsomes suspension (0.5 mg/mL).
Metabolic reactions were stopped by adding 100 μL of cooled acetonitrile to the 100 μL sample of the incubation mixture. Samples were centrifuged to provoke protein precipitation, and the supernatants were immediately stocked at −80 °C, until analysis, to prevent the potential degradation of unstable products.
The products of in vitro metabolism were identified using a high-resolution mass spectrometer (Q-Exactive Orbitrap, Thermo Scientific) coupled to an HPLC instrument (1200 system Agilent). All analytes were separated on an Ascentis C18 column (150 mm × 2.1 mm, 5 μm particle size) maintained at 35 °C. The elution mixture was composed of solvent A (0.1% formic acid in water for positive ionization mode and 0.05% acetic acid for negative ionization mode) and solvent B (acetonitrile). […] MS2-DIA scans were acquired at R = 17 500 and with variable collision energies ranging from 30 to 45, depending on the m/z of the parent ion.

THP1 cells [5] = assay: Annexin V apoptosis assay in THP1; conditions: EC50 ratio vs brequinar
U937 cells [6] = assay: Annexin V apoptosis assay in U937; conditions: EC50 ratio vs brequinar
Jurkat cells = assay: CFSE-based cytotoxic activity assay; conditions: concentration inducing cytotoxicity ≥30%, 3 days
U937 cells [7] = assay: Differentiation assay (CD11b expression) in U937; conditions: EC50 ratio vs brequinar
[8] = mean ± SE of three independent experiments, read-out: hDHODH, IC50 ± SE
[9] = supplementary CSV, values differ from Table 2, read-out: hDHODH IC50 ± SE (supplement CSV)

| Structure (SMILES) | IC50 (recombinant hDHODH; [8]) | solubility at 24 h [1] | logD [3] | IC50 (recombinant hDHODH; [9]) | solubility in PBS [1] | also measured |
| --- | --- | --- | --- | --- | --- | --- |
| O=C(Nc1c(F)c(F)c(N2CCOCC2)c(F)c1F)c1c(O)nn2ccccc12 [Compound 6, 2-Hydroxy-N-(2,3,5,6-tetrafluoro-4-morpholinophenyl)pyrazolo[1,5-a]pyridine-3-carboxamide] | 90.9 ± 13.1 nM | 438 µM (≈ 180 µg/mL) | 0.66 ± 0.08 |  |  | activity in cells (differentiation and apoptosis) (THP1 cells [2]; THP1, 1 μM): basically inactive |
| O=C(Nc1c(F)c(F)c(-c2cccc(O)c2)c(F)c1F)c1c(O)nn2ccccc12 [Compound 14, 2-Hydroxy-N-(2,3,5,6-tetrafluoro-3′-hydroxy-[1,1′-biphenyl]-4-yl)pyrazolo[1,5-a]pyridine-3-carboxamide] | 2.78 ± 0.32 nM | 55.3 µM (≈ 23.1 µg/mL) | 1.82 ± 0.09 | 2 ± 0.67 nM |  | solubility in PBS relative to 1 [1]: around 5 times; activity in cells (differentiation and apoptosis) (THP1 cells [2]; THP1, 1 μM): basically inactive |
| O=C(Nc1c(F)c(F)c(-c2ccccc2)c(F)c1F)c1c(O)nn2c(Cl)cccc12 [Compound 4, 7-Chloro-2-hydroxy-N-(2,3,5,6-tetrafluoro-[1,1′-biphenyl]-4-yl)pyrazolo[1,5-a]pyridine-3-carboxamide] | 3.4 ± 0.5 nM |  |  |  | <LOD | logD at 20 min [3]: 2.81 ± 0.13 |
| CCCOc1cccc(-c2c(F)c(F)c(NC(=O)c3c(O)nn4ccccc34)c(F)c2F)c1 [Compound 17, 2-Hydroxy-N-(2,3,5,6-tetrafluoro-3′-propoxy-[1,1′-biphenyl]-4-yl)pyrazolo[1,5-a]pyridine-3-carboxamide] |  |  | 3.28 ± 0.12 |  |  | metabolites identified in sample C [4]: monohydroxylated and dealkylated metabolites; time after which parent compound was no longer present ([4]; rat-liver microsomes with regenerating system): ≤ 30 min; metabolic stability ([4]; rat-liver microsomes, 2 h): fast metabolism; also recorded: weaker in vitro stability; activity in cells (differentiation and apoptosis) (THP1 cells [2]; THP1, 0.1 μM): highly active; superiority to brequinar, apoptosis THP1 (THP1 cells [5]): 13 times; efficacy in comparison with brequinar, apoptosis U937 (U937 cells [6]): 19 times; cytoxicity Jurkat (effect ≥30% ± SD) (Jurkat cells): >100 µM; efficacy in comparison with brequinar, differentiation U937 (U937 cells [7]): 41 times |
| O=C(Nc1c(F)c(F)c(-c2ccc(F)cc2)c(F)c1F)c1c(O)nn2ccccc12 [Compound 10, 2-Hydroxy-N-(2,3,4′,5,6-pentafluoro-[1,1′-biphenyl]-4-yl)pyrazolo[1,5-a]pyridine-3-carboxamide] | 17.7 ± 3.3 nM | < 6 µM |  | 8.32 ± 1.36 nM | <LOD | LogD^7.4 ± SD [3]: insoluble; Log D7.4 ± SD (supplement CSV) [3]: Insoluble |
| O=C(Nc1c(F)c(F)c(-c2ccccc2)c(F)c1F)c1c(O)nn2ccccc12 [Compound 1] |  |  |  |  |  | metabolites identified in sample C [4]: monohydroxylated, dihydroxylated, and methoxylated metabolites |
| O=C(Nc1c(F)c(F)c(-c2ccnc(C(F)(F)F)c2)c(F)c1F)c1c(O)nn2ccccc12 [Compound 9, 2-Hydroxy-N-(2,3,5,6-tetrafluoro-4-(2-(trifluoromethyl)pyridin-4-yl)phenyl)pyrazolo[1,5-a]pyridine-3-carboxamide] | 150 ± 15 nM | 20.2 µM (≈ 9.5 µg/mL) | 1.84 ± 0.06 |  |  | solubility in PBS relative to 1 [1]: 1.5 times; activity in cells (differentiation and apoptosis) (THP1 cells [2]; THP1, 1 μM): basically inactive |
| O=C(Nc1c(F)c(F)c(-c2ccc(C(F)(F)F)cc2)c(F)c1F)c1c(O)nn2ccccc12 [Compound 12, 2-Hydroxy-N-(2,3,5,6-tetrafluoro-4′-(trifluoromethyl)-[1,1′-biphenyl]-4-yl)pyrazolo[1,5-a]pyridine-3-carboxamide] | 71.8 ± 9.42 nM | < 6 µM |  | 29.6 ± 3.2 nM | <LOD | LogD^7.4 ± SD [3]: insoluble; Log D7.4 ± SD (supplement CSV) [3]: Insoluble |
| O=C(Nc1c(F)c(F)c(-c2cccs2)c(F)c1F)c1c(O)nn2ccccc12 [Compound 7, 2-Hydroxy-N-(2,3,5,6-tetrafluoro-4-(thiophen-2-yl)phenyl)pyrazolo[1,5-a]pyridine-3-carboxamide] | 1.35 ± 0.45 nM |  |  | 1.37 ± 0.1 nM |  |  |
| Cc1cccc2c(C(=O)Nc3c(F)c(F)c(-c4ccccc4)c(F)c3F)c(O)nn12 [Compound 2] | 4.3 ± 0.5 nM |  |  |  |  |  |
| O=C(Nc1c(F)c(F)c(-c2ccccc2)c(F)c1F)c1c(O)nn2c1CCCC2 [Compound 5, 2-Hydroxy-N-(2,3,5,6-tetrafluoro-[1,1′-biphenyl]-4-yl)-4,5,6,7-tetrahydropyrazolo[1,5-a]pyridine-3-carboxamide] | 5.8 ± 0.4 nM |  |  |  | <LOD | logD at 20 min [3]: 2.36 ± 0.02 |
